The values below come from publication PMC8708751, “Hit Identification of a Novel Quinazoline Sulfonamide as a Promising EphB3 Inhibitor: Design, Virtual Combinatorial Library, Synthesis, Biological Evaluation, and Docking Simulation Studies” (Pharmaceuticals, 2021).

One series has as its target T1, EphB3 kinase (Homo sapiens, UniProt P54753).
T1 construct: purchased Reaction Biology Co. (Kinase HotSpot service)
T1 sequence (P54753 34-998): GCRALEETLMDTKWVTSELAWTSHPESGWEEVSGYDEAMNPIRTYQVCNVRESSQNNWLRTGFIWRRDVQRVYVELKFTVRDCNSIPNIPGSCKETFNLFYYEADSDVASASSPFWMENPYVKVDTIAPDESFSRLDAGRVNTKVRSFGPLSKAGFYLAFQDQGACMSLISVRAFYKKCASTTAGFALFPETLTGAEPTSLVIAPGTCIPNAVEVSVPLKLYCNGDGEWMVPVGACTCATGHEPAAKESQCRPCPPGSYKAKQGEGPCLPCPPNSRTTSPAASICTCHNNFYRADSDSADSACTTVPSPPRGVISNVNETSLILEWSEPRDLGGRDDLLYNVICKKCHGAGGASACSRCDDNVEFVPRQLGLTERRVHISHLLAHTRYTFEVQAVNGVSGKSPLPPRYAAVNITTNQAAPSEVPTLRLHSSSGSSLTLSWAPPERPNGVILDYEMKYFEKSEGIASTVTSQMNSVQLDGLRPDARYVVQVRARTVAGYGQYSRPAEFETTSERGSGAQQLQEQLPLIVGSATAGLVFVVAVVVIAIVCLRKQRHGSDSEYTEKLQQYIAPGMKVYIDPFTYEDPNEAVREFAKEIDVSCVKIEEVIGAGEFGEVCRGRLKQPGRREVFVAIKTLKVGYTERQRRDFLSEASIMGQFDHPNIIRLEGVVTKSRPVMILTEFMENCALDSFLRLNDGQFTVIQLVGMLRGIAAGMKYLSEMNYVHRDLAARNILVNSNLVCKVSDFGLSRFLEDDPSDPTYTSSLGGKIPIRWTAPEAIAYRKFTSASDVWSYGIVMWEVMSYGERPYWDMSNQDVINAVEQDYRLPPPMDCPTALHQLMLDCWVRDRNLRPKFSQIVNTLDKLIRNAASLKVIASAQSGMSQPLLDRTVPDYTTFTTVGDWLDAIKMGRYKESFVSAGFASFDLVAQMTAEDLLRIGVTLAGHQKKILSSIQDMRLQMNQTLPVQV
Kind of series: EphB3 kinase inhibition assay (HotSpot). It is filed as biochemical. The conditions noted are these: EphB3 kinase, 10 µM compound, 10 µM ATP; read-out: Average % Enzyme Inhibition at 10 µM (Relative to DMSO Control). The procedure: The synthesized compounds were subjected to in vitro screening over EphB3 kinase. A single dose of 10 µM concentration of each target compound was used in EphB3 kinase inhibition assay, at 10 µM ATP, applying HotSpot^SM technology.
The HotSpot assay platform contains specific kinase/substrate pairs along with required cofactors. Base reaction buffer: 20 mM Hepes (pH 7.5), 10 mM MgCl2, 1 mM EGTA, 0.02% Brij35, 0.02 mg/mL BSA, 0.1 mM Na3VO4, 2 mM DTT, 1% DMSO. The tested compounds were dissolved in 100% DMSO to specific concentration. The serial dilution was conducted by Integra Viaflo Assist in DMSO (Sigma-Aldrich, Burlington, MA, USA). The reaction mixture containing the examined compound and 33P-ATP was incubated at room temperature for 2 h, and radioactivity was detected by filter-binding method. Kinase activity data were expressed as the percent remaining kinase activity in test samples compared to vehicle (dimethyl sulfoxide) reactions. IC50 values and curve fits were obtained using Prism (GraphPad Software, San Diego, CA, USA).

A further series concerns the target T2, EGFR kinase (Homo sapiens, UniProt P00533).
T2 construct: purchased Reaction Biology Co. (Kinase HotSpot service)
Kind of series: EGFR kinase inhibition assay (HotSpot). It is filed as biochemical. The note with it: for inhibition at 10 µM / Average % Enzyme Inhibition (Relative to DMSO Controls) at 10 µM: 10 µM compound; for inhibition at 10 µM: 10 µM ATP as printed, read-out: Average % Enzyme Inhibition (Relative to DMSO Controls) at 10 µM; for Average % Enzyme Inhibition (Relative to DMSO Controls) at 10 µM: 10 M [sic] ATP.

Setting [1] is: EGFR kinase, dose dependent assay, read-out: IC50.
[2] abbreviates: EGFR, read-out: EC50 of the curve fit printed in Figure 6 (IC50 per legend).

Molecules are shown by their SMILES. Like-named read-outs stand apart in the source and are kept apart here.

T2 sequence (P00533 25-1210): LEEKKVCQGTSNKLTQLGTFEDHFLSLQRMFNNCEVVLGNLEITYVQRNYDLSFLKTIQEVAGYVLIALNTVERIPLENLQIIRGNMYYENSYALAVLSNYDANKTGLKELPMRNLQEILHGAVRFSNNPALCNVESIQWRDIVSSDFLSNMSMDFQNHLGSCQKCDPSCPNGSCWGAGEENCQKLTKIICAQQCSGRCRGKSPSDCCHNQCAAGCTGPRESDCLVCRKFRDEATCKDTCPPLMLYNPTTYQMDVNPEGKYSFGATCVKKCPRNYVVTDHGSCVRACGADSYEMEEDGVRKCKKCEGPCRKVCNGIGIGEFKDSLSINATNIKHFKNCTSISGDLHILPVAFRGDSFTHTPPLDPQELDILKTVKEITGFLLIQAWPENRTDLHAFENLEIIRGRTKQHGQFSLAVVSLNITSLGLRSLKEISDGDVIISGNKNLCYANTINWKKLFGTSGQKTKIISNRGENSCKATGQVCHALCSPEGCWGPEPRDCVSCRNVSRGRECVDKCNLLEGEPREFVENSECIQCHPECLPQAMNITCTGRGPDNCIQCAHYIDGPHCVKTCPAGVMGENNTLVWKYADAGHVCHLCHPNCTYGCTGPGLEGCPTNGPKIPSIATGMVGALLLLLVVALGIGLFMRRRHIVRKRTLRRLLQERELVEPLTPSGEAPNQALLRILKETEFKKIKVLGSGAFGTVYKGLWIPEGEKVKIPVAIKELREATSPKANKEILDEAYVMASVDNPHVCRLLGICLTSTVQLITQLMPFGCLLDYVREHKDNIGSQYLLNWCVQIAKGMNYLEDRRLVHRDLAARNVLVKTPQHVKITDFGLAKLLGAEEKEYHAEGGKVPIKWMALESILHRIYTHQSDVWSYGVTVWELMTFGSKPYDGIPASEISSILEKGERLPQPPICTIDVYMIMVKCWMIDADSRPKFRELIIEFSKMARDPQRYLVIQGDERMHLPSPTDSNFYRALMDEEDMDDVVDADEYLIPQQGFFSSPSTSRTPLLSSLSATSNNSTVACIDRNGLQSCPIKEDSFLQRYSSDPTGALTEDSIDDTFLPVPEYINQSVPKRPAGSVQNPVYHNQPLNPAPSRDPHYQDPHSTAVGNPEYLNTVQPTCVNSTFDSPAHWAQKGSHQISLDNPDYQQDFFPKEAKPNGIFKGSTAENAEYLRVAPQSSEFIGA

With `NS(=O)(=O)c1ccc(Nc2ncnc3ccc(-c4cccnc4)cc23)cc1` [Compound 4a, 4-((6-(Pyridin-3-yl)quinazolin-4-yl)amino)benzenesulfonamide], the melting point was in the range of 315.1 to 316.2 °C. Further, the inhibition at 10 µM at EphB3 kinase worked out at 25.81 ± 0.24%. On EGFR kinase (EGFR kinase), the inhibition at 10 µM turned out to be 0.56 ± 4.32%.
As to `NS(=O)(=O)c1ccc(Nc2ncnc3ccc(-c4ccc(C=O)o4)cc23)cc1` [Compound 4b, 4-((6-(5-Formylfuran-2-yl)quinazolin-4-yl)amino)benzenesulfonamide], the inhibition at 10 µM on EphB3 kinase amounted to 26.7 ± 0.45%; at EGFR kinase (EGFR kinase) it was 25.2 ± 1.25%.
`NS(=O)(=O)c1ccc(Nc2ncnc3ccc(Br)cc23)cc1` [Compound 3a, 4-((6-Bromoquinazolin-4-yl)amino)benzenesulfonamide] came in with a melting point of 322.2 to 324.5 °C. For the same compound, the inhibition at 10 µM at EphB3 kinase was determined as 26.97 ± 0.24%. The inhibition at 10 µM at EGFR kinase (EGFR kinase) is -13.2 ± 4.31%.
For `NS(=O)(=O)c1ccc(Nc2ncnc3cc(-c4ccc(CN5CCOCC5)cc4)ccc23)cc1` [Compound 4d, 4-((7-(4-(Morpholinomethyl)phenyl)quinazolin-4-yl)amino)benzenesulfonamide], the melting point was 228.1 to 229.8 °C. Moreover, the inhibition at 10 µM on EphB3 kinase was found to be 18.9 ± 1.09%. On EGFR kinase (EGFR kinase), the inhibition at 10 µM was more than 50% and the “Average % Enzyme Inhibition (Relative to DMSO Controls) at 10 µM” value worked out at 65.76 ± 0.98%. Besides, the IC50 at EGFR kinase (setting [1]) is 2760 nM. The IC50 at EGFR kinase (setting [2]) came to 2760 nM.
For `NS(=O)(=O)c1cccc(Nc2ncnc3cc(-c4cccc(CN5CCOCC5)c4)ccc23)c1` [Compound 4e, 3-((7-(3-(Morpholinomethyl)phenyl)quinazolin-4-yl)amino)benzenesulfonamide], the melting point lay in the range of 267.5 to 269 °C. The inhibition at 10 µM at EphB3 kinase was -21.35 ± 0.09%. At EGFR kinase (EGFR kinase), the inhibition at 10 µM was more than 50% and the “Average % Enzyme Inhibition (Relative to DMSO Controls) at 10 µM” value is 63.28 ± 0.21%. At EGFR kinase (setting [1]), the IC50 was found to be 1060 nM. Further, the concentration for half-maximal inhibition (IC50) on EGFR kinase (setting [2]) was determined as 1060 nM.
With `NS(=O)(=O)c1cccc(Nc2ncnc3ccc(-c4cccnc4)cc23)c1` [Compound 4f, 3-((6-(Pyridin-3-yl)quinazolin-4-yl)amino)benzenesulfonamide], the melting point lay in the range of 320 to 321.5 °C. The inhibition at 10 µM at EphB3 kinase was found to be 23.5 ± 5.36%. The inhibition at 10 µM at EGFR kinase (EGFR kinase) was determined as 4.57 ± 2.16%.

Usually inhibition stands for the change of the read-out against control, counted positive when it falls. The melting point is the temperature, or range, at which the solid turns liquid. Broadly, the IC50 is the point on the concentration scale where inhibition reaches its midpoint.
